Measurements reported in patent US8309515B2, “Poly(ethylene oxide)-block-poly(ester) block copolymers” (priority 2006, dated 2012).

How the values were obtained:
rat red blood cells = assay: In vitro hemolysis against rat red blood cells; conditions: 0.1% triton-X 100, positive control
Procedure: Blood was freshly obtained from a Sprague-Dawley rat by cardiac puncture, mixed with sterile isotonic PBS and centrifuged at 3,000 rpm for 5 minutes. The supernatant were pipetted out and the red blood cells were diluted with isotonic sterile PBS (pH: 7.4). The proper dilution factor was estimated from the UV-Vis absorbance of hemoglobin at 576 nm in the supernatant after RBCs were lysed by 0.1% triton X 100. A properly diluted sample of RBCs gave an absorbance of 0.4 to 0.5. […] After incubation the samples were kept in ice bath to stop further hemolysis. The samples were centrifuged at 14,000 rpm for 30 sec to precipitate the intact RBC cells. The supernatant was separated and analyzed for hemoglobin by UV-Vis spectrophotometer at 576 nm. The percentage of hemolyzed RBC was calculated using the equation: % of hemolysis=100 (Abs−Abs0)/(Abs100-Abs0), where Abs, Abs0 and Abs100 are the absorbance for the sample, control with no polymer or DOX and control with 0.1% triton X 100, respectively.

[1] = system: B16-BL6 mouse melanoma cells; assay: In vitro cytotoxicity, MTT assay; assay type: cell-based
Procedure: In vitro cytotoxicity activity of PEO-b-P(CL-DOX) and DOX loaded PEO-b-P(CL-DOX) block copolymer micelles were investigated against B16-BL6 mouse melanoma cells using MTT assay. […] After this time, MTT solution (20 μL; 5 mg/ml in sterile-filtered PBS) was added to each well and the plates were reincubated for a further 3 h. The formazan crystals were dissolved in DMSO, and the concentration was read by a Power Wave×340 microplate reader (Bio-Tek Instruments, Inc. USA) at 550 nm.

| Molecule | hemolysis (rat red blood cells) [%] | times lower IC50 / higher cytotoxicity than PEO-b-P(CL-DOX) micelles ([1]; 24 h incubation) [times] | times lower IC50 than PEO-b-P(CL-DOX) micelles ([1]; 48 h incubation) [times] |
| --- | --- | --- | --- |
| triton-X 100 | 100 |  |  |
| COc1cccc2c1C(=O)c1c(O)c3c(c(O)c1C2=O)C[C@@](O)(C(=O)CO)C[C@@H]3O[C@H]1C[C@H](N)[C@H](O)[C@H](C)O1 [free DOX, doxorubicin] |  | 50 | 15 |
